Source: ChEMBL document CHEMBL1201862, “PubChem BioAssay data set” (2004)
Activity calls are given as the source filed them. Cut-off read from the data, not from the text of the source, for most assays here: actives have a measured EC50 and inactives only a lower limit.

Columns and labels:
[1] = target: T1, Cytochrome P450 1A2 (Homo sapiens, UniProt P05177);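 note: PubChem cytochrome P450 panel assay, CYP1A2 panel member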
T1 sequence (P05177 whole entry): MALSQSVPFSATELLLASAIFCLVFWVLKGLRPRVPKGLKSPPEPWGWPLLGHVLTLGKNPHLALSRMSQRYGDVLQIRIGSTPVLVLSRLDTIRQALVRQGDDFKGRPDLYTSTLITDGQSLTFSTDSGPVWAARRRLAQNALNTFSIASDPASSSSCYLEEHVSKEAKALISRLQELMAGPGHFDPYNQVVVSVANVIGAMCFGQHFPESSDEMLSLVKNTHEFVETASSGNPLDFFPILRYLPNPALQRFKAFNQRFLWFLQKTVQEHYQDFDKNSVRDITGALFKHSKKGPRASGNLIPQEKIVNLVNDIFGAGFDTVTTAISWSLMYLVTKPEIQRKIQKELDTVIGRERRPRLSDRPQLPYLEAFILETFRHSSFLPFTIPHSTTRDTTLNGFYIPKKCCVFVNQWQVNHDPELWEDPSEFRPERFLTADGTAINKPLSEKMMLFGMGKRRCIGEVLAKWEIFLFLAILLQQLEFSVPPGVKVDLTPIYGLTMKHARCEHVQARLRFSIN

[2] = Trypanosoma cruzi growth suppression in host cells – NIH3T3 host cells, beta-gal luminescence, confirmation (AID 2044); type: functional, cell-based;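 note: intracellular parasites grown in NIH/3T3 mouse fibroblasts as host cells; luminescent beta-galactosidase reporter signal from transgenic T. cruzi replicating inside host cells; inhibitors lower the luminescence signal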
[3] = NIH3T3 cell viability loss – ATP luminescence, mouse fibroblasts, counter-screen, dose response (AID 2010); type: functional, cell-based;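 note: cells exposed to compound for about 90 hours before reading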
[4] = target: T2, RNA-binding protein pos-1 (Caenorhabditis elegans, UniProt G5EF15); experiment: disruptors of C. elegans POS-1 RNA interaction – biochemical, fluorescence polarization, dose response (AID 1964);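 note: purified POS-1 fused to maltose binding protein made in E. coli; potency of compounds blocking POS-1 binding to fluorescent RNA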
T2 sequence (G5EF15 whole entry): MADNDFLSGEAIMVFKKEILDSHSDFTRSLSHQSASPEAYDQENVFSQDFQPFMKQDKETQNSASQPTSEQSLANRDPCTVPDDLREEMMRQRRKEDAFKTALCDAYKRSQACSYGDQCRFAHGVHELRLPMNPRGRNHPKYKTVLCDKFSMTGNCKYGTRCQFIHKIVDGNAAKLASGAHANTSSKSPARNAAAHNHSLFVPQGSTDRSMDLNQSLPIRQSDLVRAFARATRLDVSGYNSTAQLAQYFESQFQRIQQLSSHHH

[5] = target: T3, Zinc finger protein mex-5 (Caenorhabditis elegans, UniProt Q9XUB2); experiment: potency of MEX-5 RNA-binding blockers – biochemical, C. elegans, fluorescence polarization, dose response (AID 1960)
T3 sequence (Q9XUB2 whole entry): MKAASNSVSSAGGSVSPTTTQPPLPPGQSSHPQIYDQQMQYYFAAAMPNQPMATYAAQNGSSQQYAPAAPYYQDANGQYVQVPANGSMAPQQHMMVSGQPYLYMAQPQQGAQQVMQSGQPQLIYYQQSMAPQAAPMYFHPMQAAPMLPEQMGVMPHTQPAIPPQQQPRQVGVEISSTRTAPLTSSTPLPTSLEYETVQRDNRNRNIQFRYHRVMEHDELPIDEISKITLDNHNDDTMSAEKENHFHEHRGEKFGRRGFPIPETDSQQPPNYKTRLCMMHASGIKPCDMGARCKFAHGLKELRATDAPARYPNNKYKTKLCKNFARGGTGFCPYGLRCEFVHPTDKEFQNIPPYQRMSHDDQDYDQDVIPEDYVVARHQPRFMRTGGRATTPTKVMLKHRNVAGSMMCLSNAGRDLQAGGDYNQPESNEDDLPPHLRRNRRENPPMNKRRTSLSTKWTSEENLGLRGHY

[6] = Luminescence Cell-Based Dose Retest to Confirm Inhibitors of Cancer Stem Cells. [Related pubchem assays (depositor defined):AID2717, AID2721]; type: functional; details: Homo sapiens
[7] = test system: Streptococcus sp. 'group A'; experiment: Streptococcus pyogenes SK(-)GAS viability under kanamycin – luminescence, BacTiterGlo, confirmation, counter-screen for streptokinase expression inhibitor project, dose response (AID 1900); type: functional, organism-based
[8] = target: T4, Streptokinase A (Streptococcus pyogenes serotype M1, UniProt P10520); experiment: viability-normalized secreted streptokinase activity reduction – plasminogen activation absorbance, OD405, dose response (AID 1914); type: functional, Streptococcus pyogenes M1 GAS;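 note: secreted streptokinase activity via plasminogen activation per viability signal from cell pellet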
T4 sequence (P10520 whole entry): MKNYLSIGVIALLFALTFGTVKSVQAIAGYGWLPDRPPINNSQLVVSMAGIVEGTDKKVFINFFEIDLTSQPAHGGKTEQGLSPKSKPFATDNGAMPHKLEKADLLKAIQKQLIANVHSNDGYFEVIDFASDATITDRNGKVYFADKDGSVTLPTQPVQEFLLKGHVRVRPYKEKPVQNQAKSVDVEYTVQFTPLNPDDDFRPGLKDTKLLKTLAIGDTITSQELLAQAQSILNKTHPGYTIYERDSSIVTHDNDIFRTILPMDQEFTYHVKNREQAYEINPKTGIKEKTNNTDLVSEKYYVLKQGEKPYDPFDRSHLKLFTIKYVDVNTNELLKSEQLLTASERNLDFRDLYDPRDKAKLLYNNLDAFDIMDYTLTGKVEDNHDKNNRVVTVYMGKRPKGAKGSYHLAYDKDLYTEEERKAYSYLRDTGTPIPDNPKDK

[9] = test system: Streptococcus; experiment: GAS UMAA2166 growth inhibition – luminescence, BacTiterGlo, counter-screen for streptokinase expression inhibitor project, dose response (AID 1915); type: functional, organism-based;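 note: potency for reduction of bacterial viability or growth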

| Structure (SMILES) | EC50 [7] | EC50 [8] | EC50 [9] | other results |
| --- | --- | --- | --- | --- |
| C1CCC(C(C[C@@H]2CCCCN2)C2CCCCC2)CC1 |  |  |  | AC50 [1]: 6.31 µM (inconclusive) |
| Cc1[nH]c2ccc(F)cc2c1CCN(Cc1cccnc1)C(S)=Nc1cccc(F)c1 |  |  |  | EC50 [2]: 0.608 µM (active); EC50 [3]: > 30 µM (not active) |
| Cc1cccc(/C=C(\C(=O)C(=O)O)c2ccc3ccccc3n2)c1 |  |  |  | EC50 [4]: 27.2 µM (active); EC50 [5]: 22.9 µM (active) |
| O=C(NNC(=O)c1ccccc1[N+](=O)[O-])/C(O)=C/C(=O)c1ccccc1 |  |  |  | EC50 [4]: 70 µM (active); EC50 [5]: 1.11 µM (active) |
| CC(C)(c1ccc(OC[C@@H]2CO2)cc1)c1ccc(OC[C@H]2CO2)cc1 |  |  |  | AC50 [1]: 31.6 µM (inconclusive) |
| COc1cc2c(cc1NC(=O)CN(C)Cc1cccc(OC)c1OC)oc1ccccc12 |  |  |  | AC50 [6]: 2.86 µM (active) |
| CCOC(=O)N1CCC(N2Cc3cccc(C(=O)Nc4ccc(F)cc4)c3C2=O)CC1 | 4.41 µM (active) | > 150 µM (not active) | > 150 µM (not active) |  |
| CC12CN3CC(C)(CN(C1)C31CCSCC1)C2=O |  |  |  | AC50 [1]: 12.6 µM (inconclusive) |
| CCN(CC)C1CCN(C(=O)c2cc(COc3ccc(F)cc3Cl)on2)C1 (stereo not drawn) |  |  |  | AC50 [6]: 1.21 µM (active) |
| CCOc1ccc(CN2CCN(Cc3[nH]c4ccc(OC)cc4c3C)CC2CCO)cc1 (stereo not drawn) |  |  |  | EC50 [2]: 0.141 µM (active); EC50 [3]: > 60 µM (not active) |
| Cc1cc(SCC(=O)N/N=C/c2ccc(O)cc2O)nc2ccccc12 |  |  |  | EC50 [2]: 1.71 µM (active); EC50 [3]: 18.8 µM (active); AC50 [6]: 4.06 µM (active) |
| CC1CCN(c2ccccc2NC(=O)c2cc3ccccc3o2)CC1 | 8.15 µM (active) | 25.2 µM (active) | 42.4 µM (active) |  |
| COc1cccc(N2C(=O)C3NN=C(C(=O)CN4C(=O)c5ccccc5C4=O)C3C2=O)c1 (stereo not drawn) | > 150 µM (not active) | > 150 µM (not active) | > 150 µM (not active) |  |
| FC(F)(F)c1cccc(NC(=S)Nc2ccc(Cl)c(Cl)c2)c1 |  | > 150 µM (not active) |  |  |
| O=C(N/N=C/c1c(O)ccc2ccccc12)Nc1ccccc1 | 8.29 µM (active) |  | 8.39 µM (active) | EC50 [5]: > 300 µM (not active) |
| CCOC(=O)N1CCC(n2c(SCC(=O)Nc3ccccc3OC)nc3ccccc3c2=O)CC1 |  |  |  | EC50 [2]: 5.24 µM (active); EC50 [3]: > 60 µM (not active) |
| CCCCn1c(=O)c(C(=O)NCCc2ccccc2)c(O)c2ccccc21 | 26.4 µM (active) | 30.9 µM (active) | > 150 µM (not active) |  |
| Cc1ccccc1/C=N/Nc1nc2ccccc2[nH]1 | 146 µM (active) | > 150 µM (not active) | > 150 µM (not active) |  |
| Cc1ccc(CCNc2c([N+](=O)[O-])nn(-c3ccccc3)[n+]2[O-])cc1 |  |  |  | EC50 [2]: 1.15 µM (active); EC50 [3]: > 30 µM (not active) |
| COC(=O)c1ccc(/C=C/c2c(-c3ccsc3)sc3ccccc23)cc1 |  |  |  | AC50 [6]: 4.12 µM (active) |
| FC(F)(F)c1cccc(NC(S)=Nc2ccc(Cl)c(Cl)c2)c1 | 2.45 µM (active) |  | 6.78 µM (active) |  |
| CC(=O)OCC1=C(C(=O)O)N2C(=O)C(NC(=O)CCn3nc(C)c(Cl)c3C)C2SC1 (stereo not drawn) | 2.13 µM (active) |  | 1.31 µM (active) |  |

| Structure (SMILES) | EC50 [7] | EC50 [8] | EC50 [9] | other results |
| --- | --- | --- | --- | --- |
| Cc1cccc(OCCCOc2cccc3cccnc23)c1C | 16.9 µM (active) | > 150 µM (not active) | > 150 µM (not active) |  |
| Cc1cc(C)c(OCC(=O)Nc2ccccc2N2CCCCC2)c(C)c1 | 25.7 µM (active) | 4.09 µM (active) | 15.7 µM (active) |  |
| Cc1cccc(CN2CCN(C(c3ccccc3)c3ccc(Cl)cc3)CC2)c1 (stereo not drawn) [MECLIZINE DIHCL] |  |  |  | AC50 [6]: 3.57 µM (active) |
| Cn1c(Sc2ccccc2Cl)c(C=O)c2ccccc21 | 27.1 µM (active) | 32.3 µM (inconclusive) | > 150 µM (not active) |  |
| Cc1ccc(C(=O)C(c2ccccc2)N2Cc3ccccc3C2=N)cc1 (stereo not drawn) | 5.37 µM (active) | 4.15 µM (active) | > 150 µM (not active) |  |
| COc1ccc(C2CC(C)(c3ccc(OC)cc3OC)Nc3ccccc3N2)c(OC)c1 (stereo not drawn) |  |  |  | EC50 [2]: 1.96 µM (active); EC50 [3]: > 60 µM (not active) |
| CCOC(=O)c1ccc(N2C(=O)/C(=C\NNC(=O)C3COc4ccccc4O3)c3ccccc3C2=O)cc1 (stereo not drawn) | 1.02 µM (active) |  | 4.31 µM (active) |  |
| CC(=O)c1ccc(N2CCN(S(=O)(=O)c3cc(-c4cc(C)no4)ccc3C(C)C)CC2)cc1 |  |  |  | AC50 [6]: < 0.16 µM (active) |
| O=C(NNC(=S)NC(=O)c1ccc(Br)cc1)c1cccc([N+](=O)[O-])c1 | 2.41 µM (active) | > 150 µM (not active) | 9.6 µM (active) |  |
| CC[C@H]1OC(=O)C[C@@H](O)[C@H](C)[C@@H](O[C@@H]2O[C@H](C)C[C@H](N(C)C)[C@H]2O)[C@@H](CC=O)C[C@@H](C)C(=O)C=C[C@]2(C)O[C@H]2[C@@H]1C | < 0.06 µM (active) |  | < 0.06 µM (active) |  |
| CCCCCCCCCCCCCCCCCCc1ccc(C(=O)/C=C\C(=O)O)cc1 |  |  |  | AC50 [1]: 31.6 µM (inconclusive) |
| O=C(/C=C/c1cccc(F)c1)NC1CCN(Cc2ccccc2)CC1 |  |  |  | EC50 [2]: 0.102 µM (active); EC50 [3]: > 60 µM (not active) |
| CN(C)CCCN(C(=O)c1ccco1)c1nc2c(F)cc(F)cc2s1 |  |  |  | EC50 [2]: 0.101 µM (active); EC50 [3]: > 60 µM (not active) |
| O=C(Nc1cccc(Cl)c1N1CCCCC1)c1ccc2c(c1)OCCO2 | 9.41 µM (active) | > 150 µM (not active) | > 150 µM (not active) | AC50 [6]: 7.74 µM (active) |
| C=CCc1cccc(/C=N/NC(=O)C(=O)Nc2ccc(C)cc2)c1O | > 150 µM (not active) | > 150 µM (not active) | > 150 µM (not active) |  |
| COc1ccc(NC2=NN=C(c3c(C)[nH]c4ccccc34)CS2)cc1 | 3.9 µM (active) | > 150 µM (not active) | 13 µM (active) | AC50 [6]: 7.35 µM (active) |
| O=C(N/N=C/c1cn(-c2cccs2)nc1-c1ccccc1)c1ccc(O)cc1 |  |  |  | AC50 [6]: 8.96 µM (active) |
| c1ccc(N2N=C(c3cccs3)CC2c2ccco2)cc1 (stereo not drawn) | > 150 µM (not active) | 40.1 µM (active) | > 150 µM (not active) |  |
| Cc1cccc(/C=N/NC(=O)Cc2ccc(Cl)cc2)c1O | 4.52 µM (active) |  | 7.4 µM (active) |  |
| O=C(O)c1ccc(NC(=S)NC(=O)c2cccc(COc3ccccc3)c2)cc1 | 18.6 µM (active) |  | 38 µM (active) |  |
| CC(NNc1ccccc1)=C1C(=O)NC(=O)NC1=O |  |  |  | AC50 [6]: 1.02 µM (active) |
| CCNc1ncc2nc(-c3cn(C)c4ccccc34)c(=O)n(C[C@H]3CCCO3)c2n1 |  |  |  | AC50 [1]: 10 µM (inconclusive) |
